Measured values taken from patent US10660967B2, “Curcumin conjugates and methods of use thereof” (priority 2016, dated 2020).
Like-named read-outs stand apart in the source and are kept apart here.

Legend:
[1] = test system: Pseudomonas aeruginosa ATCC27853; test: Antimicrobial MIC, agar dilution
[2] = test system: HCT116 (colon) carcinoma cell line; test: Anti-tumor properties, MTT; assay type: cell-based; conditions: Homo sapiens, HCT-116; read-out: IC50 (μM) HCT116 (colon)
Procedure, shortened: (§1)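 Cells seeded at 10×10^3 per well for 24 h, then exposed to compound in serum-free medium (final up to 100 μM, 0.5% DMSO vehicle) for 72 h in triplicate. Viability by MTT reduction (4 h, SDS solubilised), absorbance 595 nm/ref 620 nm; IC50 from survival curves.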

[3] = test system: MCF7 (breast) carcinoma cell line; test: Anti-tumor properties, MTT; assay type: cell-based; conditions: Homo sapiens, MCF7; read-out: IC50 (μM) MCF7 (breast)
Procedure, shortened: as §1

[4] = test system: HepG2 (hepatocellular) carcinoma cell line; test: Anti-tumor properties, MTT; assay type: cell-based; conditions: Homo sapiens, HepG2; read-out: IC50 (μM) HepG2 (liver)
Procedure, shortened: as §1

[5] = test system: Staphylococcus aureus ATCC25923; test: Antimicrobial MIC, agar dilution
[6] = test system: lipopolysaccharide-stimulated peritoneal macrophages; test: Production of nitric oxide by lipopolysaccharide-stimulated peritoneal macrophages (Greiss reagent); assay type: cell-based; parameters: Potency (%): % inhibition of nitric oxide production relative to lipopolysaccharide-stimulated macrophages: concentration or dose not given beside the values; conditions: LPS-stimulated peritoneal macrophages; for Nitric oxide (nitrite) concentration, μM (average ± SD): 24 h, nitrite by Greiss reagent
Procedure, shortened: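 NO output was quantified as accumulated nitrite, reacting supernatant with Greiss reagent (sulfanilamide/α-naphthylamine) and reading at 532 nm. Beforehand, cells had been incubated 24 h at 37° C. in nitrite-free, 0.1% BSA medium with 0.5–10 ng/ml LPS, with or without catecholamines at […].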

[7] = test system: Candida albicans (local isolate); test: Antimicrobial MIC, agar dilution; conditions: Candida albicans, read-out: Minimum inhibitory concentration (MIC)
[8] = test system: Salmonella typhi ATCC19430; test: Antimicrobial MIC, agar dilution; assay type: cell-based; conditions: Salmonella enterica, read-out: Minimum inhibitory concentration (MIC)
[9] = test system: PC3 (prostate) carcinoma cell line; test: Anti-tumor properties, MTT; assay type: cell-based; conditions: Homo sapiens
[10] = test system: Streptococcus pyogenes ATCC19615; test: Antimicrobial MIC, agar dilution
[11] = test system: PHA-stimulated splenocytes; test: Proliferative response of PHA-stimulated splenocytes (MTT assay); assay type: cell-based; conditions: PHA 5 μg/ml, 72 hr; compounds at 5 μM (method says 10 μM); ratio of O.D. versus vehicle control
Procedure, shortened: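 Readout was MTT absorbance (570 nm, reference 690 nm) after 72 h culture at 37° C. Splenocytes at 1×10^6 cells/well received test compound (10 μM final) alone or plus PHA 5 μg/ml as T-cell mitogen. Values are OD ratios of compound over vehicle control (stimulation index).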

[12] = test system: A-549 (lung) carcinoma cell line; test: Anti-tumor properties, MTT; assay type: cell-based; conditions: Homo sapiens, A549
[13] = ATCC27853, 18 h, read-out: Minimum inhibitory concentration (MIC)
[14] = ATCC27853, read-out: Minimum inhibitory concentration (MIC)
[15] = ATCC25923, 18 h, read-out: Minimum inhibitory concentration (MIC)
[16] = ATCC25923, read-out: Minimum inhibitory concentration (MIC)
[17] = ATCC19615, 18 h, read-out: Minimum inhibitory concentration (MIC)
[18] = ATCC19615, read-out: Minimum inhibitory concentration (MIC)

SMILES | MIC [1, 13] | MIC [1, 14] | IC50 [2] | IC50 [3] | IC50 [4] | MIC [5, 15] | MIC [5, 16] | Potency (%): % inhibition of nitric oxide production relative to lipopolysaccharide-stimulated macrophages [6] | Nitric oxide (nitrite) concentration, μM (average ± SD) [6] | MIC ([7]; 18 h) | MIC [7] | MIC ([8]; 18 h) | MIC [8] | IC50 [9] | MIC [10, 17] | MIC [10, 18] | Stimulation Index (average ± SD) [11] | IC50 [12]
COc1cc(/C=C/C(=O)CC(=O)/C=C/c2ccc(OC(=O)CNC(=O)OC(C)(C)C)c(OC)c2)ccc1OC(=O)CNC(=O)OC(C)(C)C [Boc-Gly-Cur, ((1E,6E)-3,5-dioxohepta-1,6-diene-1,7-diyl)bis(2-methoxy-4,1-phenylene) bis(2-((tert-butoxycarbonyl)amino)acetate)] | 0.25 µg/mL | 0.366 µM | > 100 µM | 17.2 µM | > 100 µM | 0.25 µg/mL | 0.366 µM | 33.65% | 18.12 ± 1.41 µM | 0.5 µg/mL | 0.732 µM | 0.125 µg/mL | 0.183 µM | > 100 µM | 1 µg/mL | 1.47 µM | 2.11 ± 0.16 | 80.9 µM
COc1cc(/C=C/C(=O)CC(=O)/C=C/c2ccc(OC(=O)[C@H](C)NC(=O)OC(C)(C)C)c(OC)c2)ccc1OC(=O)[C@H](C)NC(=O)OC(C)(C)C [Boc-L-Ala-Cur, ((1E,6E)-3,5-dioxohepta-1,6-diene-1,7-diyl)bis(2-methoxy-4,1-phenylene) (2S,2′S)-bis(2-((tert-butoxycarbonyl)amino)propanoate)] | 1 µg/mL | 1.41 µM | > 100 µM | 25.1 µM | > 100 µM | 0.125 µg/mL | 0.176 µM | 22.02% | 21.30 ± 1.72 µM | 1 µg/mL | 1.41 µM | 0.125 µg/mL | 0.176 µM | > 100 µM | 0.25 µg/mL | 0.352 µM | 2.71 ± 0.28 | > 100 µM
COc1cc(/C=C/C(=O)CC(=O)/C=C/c2ccc(OC(=O)[C@H](CCC(N)=O)NC(=O)OC(C)(C)C)c(OC)c2)ccc1OC(=O)[C@H](CCC(N)=O)NC(=O)OC(C)(C)C [Boc-L-Gln-Cur, ((1E,6E)-3,5-dioxohepta-1,6-diene-1,7-diyl)bis(2-methoxy-4,1-phenylene) (2S,2′S)-bis(5-amino-2-((tert-butoxycarbonyl)amino)-5-oxopentanoate)] | 1 µg/mL | 1.21 µM | > 100 µM | 8.48 µM | 70.6 µM | 0.125 µg/mL | 0.152 µM | 22.29% | 21.22 ± 1.50 µM | 2 µg/mL | 2.42 µM | 0.125 µg/mL | 0.152 µM | 39.1 µM | 0.25 µg/mL | 0.303 µM | 2.14 ± 0.23 | 30.9 µM
CC[C@H](C)[C@H](NC(=O)OC(C)(C)C)C(=O)Oc1ccc(/C=C/C(=O)CC(=O)/C=C/c2ccc(OC(=O)[C@@H](NC(=O)OC(C)(C)C)[C@@H](C)CC)c(OC)c2)cc1OC [Boc-L-Ile-Cur, ((1E,6E)-3,5-dioxohepta-1,6-diene-1,7-diyl)bis(2-methoxy-4,1-phenylene) (2S,2′S,3S,3′S)-bis(2-((tert-butoxycarbonyl)amino)-3-methylpentanoate)] | 1 µg/mL | 1.26 µM | > 100 µM | 49.6 µM | > 100 µM | 0.125 µg/mL | 0.157 µM | 23.82% | 20.81 ± 0.68 µM | 2 µg/mL | 2.52 µM | 0.125 µg/mL | 0.157 µM | > 100 µM | 0.25 µg/mL | 0.314 µM | 2.07 ± 0.10 | > 100 µM
